Data on one compound can be found in patent US20160166604A1, “Thiol-Sensitive Positive Inotropes” (priority 2005, published 2016).

For data set [1], the system named is isolated rat ventricular myocytes. Briefly: Whole Ca2+ transients and SR Ca2+ load in isolated rat ventricular myocytes (Indo-1, caffeine). The data set is classed as cell-based. The method, then:
Isolation of ventricular myocytes from rats was carried out as previously described. Bassani, R A. et al., J. Mol. Cell Cardiol., 26, 1335-1347 (1994). The enzyme used for tissue dissociation was Liberase Blendzyme 3 or 4 (13-20 Wuensch Units/Heart) sometimes supplemented with 5-10 Units of Dispase II (both Roche Diagnostics, Indianapolis, Ind.). When the heart became flaccid, left ventricular tissue was cut into small pieces for further incubation (5 to 10 min at 37° C.) in enzyme solution. The tissue was dispersed, filtered, and suspensions rinsed several times before used for experiments. Isolated rat ventricular myocytes were then plated onto superfusion chambers, with the glass bottoms treated with natural mouse laminin (Invitrogen, Carlsbad, Calif.). The standard Tyrode's solution used in all experiments contained (in mM): NaCl 140, KCl 4, MgCl2 1, glucose 10, HEPES 5, and CaCl2 1, pH 7.4. Myocytes were loaded with 6 μM Indo-1/AM for 25 min and subsequently perfused for at least 30 min to allow for deesterfication of the dye. Some cells were pretreated with 0.5 mM AS (in some Caffeine experiments with 1 mM), washed and then loaded with Indo-1/AM. Concentration of the AS stock solution was verified by absorbance at 250 nm. All experiments were done at room temperature (23-25° C.) using field stimulation. Ca^2+-transients were recorded with Clampex 8.0 and data analyzed with Clampfit.
To further explore potential HNO targets, calcium cycling in adult mouse and rat cardiac myocytes was examined. Cells were first exposed to AS for 5-10 min, then washed and loaded with Indo-1 or Fluo-4 for 20 min. Pretreatment with AS was carried out because the drug reacted with the Ca^2+ indicators (both Fluo-4 and Indo-1) and altered their fluorescent properties. In mice, the calcium transient amplitude assessed by confocal line scan imaging increased by ˜40% over baseline with 0.5 mM AS, (n=27, p<0.001) (FIG. 3A-FIG. 3C), time to peak transient was prolonged (FIG. 3D) while the decay time shortened (FIG. 3E). Basal fluorescence (F0) was unchanged by AS pretreatment (FIG. 3F). Similar results were obtained in rat myocytes (using Indo-1) for Ca^2+ transient amplitude (FIG. 3G and FIG. 3H) and decay time (FIG. 3I). The increase in amplitude was not accompanied by an increase in diastolic Ca^2+ level (ratio 405/485=0.239±0.006 (Con) vs. 0.243±0.008 (AS); n.s.; see also FIG. 3A, FIG. 3F and FIG. 3G). Rapid sustained caffeine (10 mM) application abruptly releases all SR Ca^2+ and subsequent [Ca^2+]i decline is mediated mainly via Na/Ca exchange.

Data set [2] in a line: Kinetics of AS decomposition in Tyrode solution. The data set is classed as physicochemical. The following applies: after ~1000 sec (16 min); Tyrode solution pH 7.4, room temperature; identical for 0.1-1 mM AS. The method, then: FIG. IA-FIG. 1D show the effects of HNO donor AS on sarcomere shortening in isolated mouse ventricular myocytes.
At physiological pH, AS decomposes to produce HNO and nitrite. Whether nitrite could play a role in the observed responses was therefore tested. […] Identical results were obtained for 0.1-1 mM AS. Thus, at time of functional analysis, 25-250 μM NO2^− is expected; however, such levels (and higher or lower doses) had no effect on sarcomere shortening (FIG. 1H).

The target of another data set is T1, SR Ca2+ pump (SERCA2a) (Mus musculus, UniProt O55143).
T1 construct: Crude cardiac microsomal vesicles containing fragmented sarcoplasmic reticulum (SR) were prepared; from tissue; host or cells: pooled hearts of C57 male mice (crude SR microsomal vesicles)
T1 sequence (O55143 1-998 isoform O55143-2): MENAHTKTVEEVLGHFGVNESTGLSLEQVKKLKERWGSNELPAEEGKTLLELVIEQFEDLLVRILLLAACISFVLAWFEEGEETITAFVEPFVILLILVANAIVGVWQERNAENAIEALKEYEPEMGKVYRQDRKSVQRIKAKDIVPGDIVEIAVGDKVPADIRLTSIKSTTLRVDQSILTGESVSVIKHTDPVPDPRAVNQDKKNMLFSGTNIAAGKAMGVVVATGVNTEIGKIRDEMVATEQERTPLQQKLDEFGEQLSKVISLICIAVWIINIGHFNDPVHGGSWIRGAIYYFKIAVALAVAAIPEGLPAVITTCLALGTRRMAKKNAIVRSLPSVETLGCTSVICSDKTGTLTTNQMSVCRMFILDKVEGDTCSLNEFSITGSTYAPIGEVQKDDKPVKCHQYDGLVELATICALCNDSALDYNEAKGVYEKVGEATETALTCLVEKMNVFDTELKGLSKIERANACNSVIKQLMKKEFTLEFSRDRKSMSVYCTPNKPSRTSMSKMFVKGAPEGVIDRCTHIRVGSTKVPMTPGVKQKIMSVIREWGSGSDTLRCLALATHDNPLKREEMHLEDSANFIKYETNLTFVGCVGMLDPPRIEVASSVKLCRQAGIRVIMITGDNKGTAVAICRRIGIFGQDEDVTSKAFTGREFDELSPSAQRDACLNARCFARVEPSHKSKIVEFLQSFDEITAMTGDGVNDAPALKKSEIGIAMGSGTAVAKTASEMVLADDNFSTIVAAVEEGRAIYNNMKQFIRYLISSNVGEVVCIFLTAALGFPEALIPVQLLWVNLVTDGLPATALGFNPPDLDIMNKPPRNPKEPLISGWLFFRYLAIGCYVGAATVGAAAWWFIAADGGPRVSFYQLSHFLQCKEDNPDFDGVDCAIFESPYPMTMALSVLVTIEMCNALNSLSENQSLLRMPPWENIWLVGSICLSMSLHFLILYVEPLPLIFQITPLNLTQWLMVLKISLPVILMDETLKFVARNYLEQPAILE
Put plainly: ATP-dependent Ca2+ uptake by murine cardiac SR vesicles (stopped-flow, arsenazo III). Also on record: total Ca2+ uptake at equilibrium: unit not given here. The data set is classed as biochemical. The method, then:
Crude cardiac microsomal vesicles containing fragmented sarcoplasmic reticulum (SR) were prepared as previously described for rat heart. Froehlich, J. P. et al., J. Mol. Cell. Cardiol., 10, 427-438 (1978). Pooled hearts from C57 male mice sacrificed by cervical dislocation were placed in 0.9% saline on ice, trimmed of atrial and connective tissue, and weighed. The finely minced heart muscle was homogenized in 10 mM NaHCO3 using a Polytron blender and the SR vesicles were separated from the myofilaments, mitochondria and nuclear membranes by differential centrifugation at 8,500 and 45,000×g. SR vesicles suspended in 0.25 M sucrose+10 mM MOPS, pH 7.0 were frozen and stored in liquid nitrogen prior to use. Twenty minutes prior to measuring Ca^2+ uptake, cardiac SR vesicles (1 mg/ml in storage buffer) were incubated with 250 μM AS delivered from a freshly-prepared 10 mM stock solution of AS (Na2N2O3) dissolved in 10 mM NaOH. […] Stopped-flow mixing was used to measure the initial time course of Ca^2+ accumulation by murine cardiac SR vesicles using the Ca^2+ indicator dye, arsenazo III. Membrane vesicles (0.4 mg/ml) suspended in a medium containing 100 mM KCl, 1 mM MgCl2, 50 μM arsenazo III, 5 mM sodium azide, and 20 mM MOPS, pH 7.4, were mixed with an equal volume of an identical medium containing 1 mM Na2ATP at 24° C. in a manually-operated stopped-flow apparatus (Applied Photophysics, Ltd.). The change in [Ca^2+] in the mixing cuvette was monitored using a single-beam UV-VIS spectrophotometer (AVIV, Model 14DS) with a monochromator setting of 650 nm. The total [Ca^2+] in the uptake medium was 0.5 μM, yielding a free [Ca^2+] in equilibrium with the Ca-arsenazo III complex of 0.2 μM (KA=3.3×10^4 M^−1). […] The time-dependent decrease in absorbance at 650 nm, reflecting Ca^2+ uptake by the SR vesicles, was monitored for 30-60 s at 0.1 s intervals. […] The signal change due to vesicle light scattering was evaluated from separate measurements conducted under identical conditions at the isosbestic wavelength of 693 nm. For evaluation of the time course of Ca^2+ uptake, a representative trace at 693 nm was subtracted from each of the individual traces at 650 nm acquired under identical conditions. The kinetic and thermodynamic parameters for Ca^2+ uptake were evaluated by fitting stopped-flow signals to one- and two-exponential decay functions plus a residual term using non-linear regression (Prism, Version 3.03). Residual plots of the difference between the fitted curve and data points were used to evaluate systematic errors in the fits and to calculate the sum-of-squares error used in selecting the best fit.
To test whether HNO directly enhances SR Ca^2+ uptake, its effects on SR membrane vesicles isolated from pooled C57/Bl6 mouse hearts were studied. Crude SR microsomal vesicles were incubated with 250 μM AS prior to measuring ATP-dependent Ca uptake by stopped-flow mixing at 24° C. Arsenazo III, a mid-range Ca indicator, was used to monitor Ca removal from the eravesicular compartment and buffer the free [Ca^2+] at a level producing half-saturation of the Ca^2+ pump (˜0.2 μM).

Entries after “also recorded” stand apart in the source; their conditions may differ.

On to `[Na+].[Na+].[O-][N+]([O-])=NO` [AS, Angeli's salt], for which the “fractional SR Ca2+ release” value in data set [1] (AS pretreated) is “enhanced”. For the same compound, the “relative contribution of NCX to Ca2+ removal” value in data set [1] (AS pretreated cells, Con 12.4%) is reported as 8.7%. The “relative contribution of the SR to Ca2+ removal” value in data set [1] (AS pretreated cells, Con 87.6%) is 91.3%. Also, the “diastolic Ca2+ level (ratio 405/485)” value in data set [1] (AS pretreated rat myocytes, Con 0.239±0.006, n.s.) is on record as 0.243±0.008. Moreover, in data set [1] (AS pretreated, caffeine 10 mM), the “SR Ca2+ content (total SR load, caffeine)” value is recorded as “unchanged; also recorded: did not alter”. In addition, the “τ of caffeine-induced Ca2+ transient decline (Na/Ca exchange function)” value in data set [1] (caffeine 10 mM, printed 2.0±0.4 vs. 2.2±0.3, order Con vs. AS assumed) is 2.2 ± 0.3 s. Moreover, the “nitrite generation on AS decomposition” value in data set [2] was determined as 25%. The “increase of rate constant for Ca2+ uptake” value at SR Ca2+ pump (SERCA2a) (250 μM AS, 0.2 μM free Ca2+, 24° C., n=6) is listed as 104%. On SR Ca2+ pump (SERCA2a) (250 μM AS, without AS 0.1563), the “rate constant for Ca2+ uptake” value amounted to 0.3204 s⁻¹. For the same compound, at SR Ca2+ pump (SERCA2a) (AS 250 μM), the “rate of initial Ca2+ uptake” value is recorded as “enhanced”. Moreover, at SR Ca2+ pump (SERCA2a) (after AS exposure, before 0.00257±0.0003, p=NS), the “total Ca2+ uptake at equilibrium” value was found to be 0.00202±0.000. On SR Ca2+ pump (SERCA2a) (decayed AS test solution (e.g. nitrite)), the “SR Ca2+ uptake activity after AS solution decayed completely to products” value is “No stimulation”.
